Like-named read-outs stand apart in the source and are kept apart here.
Assay: Inhalation exposure: Compound A concentration in lung, plasma and BALF (Example 2)
Format: in vivo, BALB/c mice
Details: for AUC(0-inf) / Cmax / Tmax / AUC(0-t) / concentration at 0.083 h / concentration at 0.25 h / concentration at 0.5 h / concentration at 1 h / concentration at 2 h / concentration at 4 h / concentration at 8 h / concentration at 12 h / concentration at 24 h: male, BALB/c; for AUC(0-inf) / Cmax / Tmax / AUC(0-t): inhaled or intranasal; for AUC(0-t): read-out: AUC(0-24); for concentration at 0.083 h / concentration at 0.25 h / concentration at 0.5 h / concentration at 1 h / concentration at 2 h / concentration at 4 h / concentration at 8 h / concentration at 12 h / concentration at 24 h: mouse, inhaled, mice, 30 min inhalation
Experimental: A series of compositions for pulmonary delivery were prepared by making a 20% suspension of compound A in a 5% tyloxapol solution in water. Particle size reduction was achieved using a colloid mill (magicLAB®, MK module, for 6 hours @ 12,000 rpm, while maintaining a temperature below 50° C.). Samples at 4% w/v compound A were prepared by dilution with DI water.
Low (0.02 mg/L), mid (0.07 mg/L), and high (0.20 mg/L) target aerosol concentrations 0.3% Compound A/0.075% tyloxapol, 0.6% Compound A/0.15% tyloxapol, and 1.5% Compound A/0.375% tyloxapol suspensions were used. These low, mid, and high target formulations were prepared as follows: […]
4% compound A and 1% tyloxapol were removed from refrigeration and approximately 2.25, 4.5, and 12 mL were transferred into clean 50 mL graduated plastic tubes, labeled 0.3% A/0.075% tyloxapol, 0.6% A/0.15% tyloxapol, and 1.5% A/0.375% tyloxapol suspensions and allowed to warm to room temperature. Each was diluted to 20 mL with ultra pure water and vortexed until completely mixed. Each formulation was made the morning of exposure to alleviate any storing/stability issues.
Eighty-seven (87) male BALB/c mice (8 weeks of age on arrival and 18.6-24.6 g on exposure day) were purchased from Charles River Laboratories (Raleigh, N.C.). The three animals with the lowest body weights and the three with the highest body weights were excluded from the study on the day of randomization. The remaining eighty-one (81) animals were assigned to the study. Temperatures and relative humidity (RH) in animal housing areas were within the target range specified in the protocol.
Animals were exposed to one of three concentrations of Compound A aerosols for a target of 30 min.
The actual concentrations of test article in the exposure atmospheres were determined by chemical analysis of timed filter samples collected directly from a nose-only exposure port during exposure. In addition, one impactor sample was obtained to verify particle size distribution (PSD), which is characterized by mass median aerodynamic diameter (MMAD) and geometric standard deviation (GSD). The filters and impactor stages were analyzed chemically by LRRI and are described below.

[1] = 0.15 mg/kg, mouse BALF, aerosol conc. 0.02 mg/L
[2] = 0.27 mg/kg, mouse BALF, aerosol conc. 0.07 mg/L
[3] = 0.7 mg/kg, mouse BALF, aerosol conc. 0.2 mg/L
[4] = mouse lung, aerosol conc. 0.02 mg/L
[5] = mouse lung, aerosol conc. 0.07 mg/L
[6] = mouse lung, aerosol conc. 0.2 mg/L
[7] = BALF, nominal aerosol 0.02 mg/L, read-out: Compound A concentration BALF
[8] = BALF, nominal aerosol 0.07 mg/L, read-out: Compound A concentration BALF
[9] = BALF, nominal aerosol 0.2 mg/L, read-out: Compound A concentration BALF
[10] = lung, nominal aerosol 0.02 mg/L, read-out: Compound A concentration Lung

Nc1nc(N)c2nc(-c3cccc(O)c3)c(-c3cccc(O)c3)nc2n1 [Compound A, 6,7-bis(3-hydroxyphenyl)-pteridine-2,4-diamine]
time course of concentration in lung and BALF (FIGS. 1 and 2, higher concentrations for mice exposed to higher doses): dose dependent
Maximum concentration in the BALF (Group A (0.02 mg/L)): 1190 ng/mL
Maximum concentration in the lung (Group A (0.02 mg/L)): 20.9 µg/g
time of maximum concentration in the BALF (Group A (0.02 mg/L)): 0.25 h
time of maximum concentration in the lung (Group A (0.02 mg/L)): 0.08 h
Maximum concentration in the BALF (Group B (0.07 mg/L)): 2140 ng/mL
time of maximum concentration in the BALF (Group B (0.07 mg/L)): 0.08 h
time of maximum concentration in the lung (Group B (0.07 mg/L)): 2.00 h
Maximum concentration in the BALF (Group C (0.2 mg/L)): 5670 ng/mL
time of maximum concentration in the BALF (Group C (0.2 mg/L)): 0.25 h
time of maximum concentration in the lung (Group C (0.2 mg/L)): 0.50 h
plasma levels (all aerosol concentrations, generally): < LLOQ
AUC(0-inf) [1]: 21700 ng·h/mL
Cmax [1]: 1190 ng/mL
Tmax [1]: 15 min
AUC(0-t) [1]: 8850 ng·h/mL
AUC(0-inf) [2]: 30400 ng·h/mL
Cmax [2]: 2140 ng/mL
Tmax [2]: 4.8 min
AUC(0-t) [2]: 18100 ng·h/mL
AUC(0-inf) [3]: 54300 ng·h/mL
Cmax [3]: 5670 ng/mL
Tmax [3]: 15 min
AUC(0-t) [3]: 37200 ng·h/mL
Cmax [4]: 20900 ng/g
Tmax [4]: 4.8 min
Cmax [5]: 22700 ng/g
Tmax [5]: 120 min
Cmax [6]: 67200 ng/g
Tmax [6]: 30 min
concentration at 0.083 h [7]: 896 ± 41.7 ng/mL
concentration at 0.25 h [7]: 1190 ± 35.4 ng/mL
concentration at 0.5 h [7]: 457 ± 219 ng/mL
concentration at 1 h [7]: 831 ± 288 ng/mL
concentration at 2 h [7]: 813 ± 117 ng/mL
concentration at 4 h [7]: 541 ± 409 ng/mL
concentration at 8 h [7]: 286 ± 156 ng/mL
concentration at 12 h [7]: 296 ± 19.1 ng/mL
concentration at 24 h [7]: 223 ± 91.2 ng/mL
concentration at 0.083 h [8]: 2140 ± 1340 ng/mL
concentration at 0.25 h [8]: 1190 ± 270 ng/mL
concentration at 0.5 h [8]: 1350 ± 559 ng/mL
concentration at 1 h [8]: 1250 ± 359 ng/mL
concentration at 2 h [8]: 930 ± 818 ng/mL
concentration at 4 h [8]: 1310 ± 1010 ng/mL
concentration at 8 h [8]: 800 ± 225 ng/mL
concentration at 12 h [8]: 569 ± 142 ng/mL
concentration at 24 h [8]: 512 ± 128 ng/mL
concentration at 0.083 h [9]: 3150 ± 110 ng/mL
concentration at 0.25 h [9]: 5670 ± 2550 ng/mL
concentration at 0.5 h [9]: 2220 ± 1910 ng/mL
concentration at 1 h [9]: 2570 ± 2030 ng/mL
concentration at 2 h [9]: 3190 ± 2580 ng/mL
concentration at 4 h [9]: 3350 ± 687 ng/mL
concentration at 8 h [9]: 1370 ± 185 ng/mL
concentration at 12 h [9]: 1050 ± 799 ng/mL
concentration at 24 h [9]: 694 ± 56 ng/mL
concentration at 0.083 h [10]: 20900 ± 13200 ng/g
concentration at 0.25 h [10]: 10100 ± 1390 ng/g
concentration at 0.5 h [10]: 11700 ± 8050 ng/g
concentration at 1 h [10]: 11800 ± 7260 ng/g

Source: US20110166149A1, “PTERIDINE DERIVATIVES FOR TREATING RESPIRATORY DISEASE” (TARGEGEN INC., priority 2008, published 2011)
